# Experimental data taken from patent publication US8816085B2 (Takeda GmbH, priority 2009, dated 2014).
# Biological target: T1, PDE5A1 (human PDE5 from platelets) (Homo sapiens, UniProt O76074)
# T1 construct: from tissue; host or cells: platelets from fresh blood of human donors (10,000 g supernatant of sonified platelets)
# Assay: Inhibition of type 5 phosphodiesterase (PDE5) activity, modified SPA test
# Format: biochemical
# Settings: PDE5-containing human platelet lysate, 0.5 μM cGMP, value classes, read-out: PDE5A1 inhibitory values [measured as −logIC50 (mol/l)] (converted)
# Method in brief: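 Enzyme source: human platelet lysate (10,000 g supernatant), with 1 μM motapizone and 10 nM PDE2 inhibitor present. SPA format in 20 mM Tris pH 7.4, 5 mM Mg2+, 0.5 μM cGMP with [3H]cGMP tracer; 5 min preincubation at 37 °C, 15 min reaction, stopped with IBMX-containing beads. IC50 by non-linear regression.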
row,Structure (SMILES),IC50
1,"CC(=O)N1CCC(NC(=O)c2c(C)[nH]c3c(-c4c(OCC5CC5)ccc5c4OCO5)ccnc23)CC1 [Example E01, N-(1-Acetylpiperidin-4-yl)-7-[5-(cyclopropylmethoxy)-1,3-benzodioxol-4-yl]-2-methyl-1H-pyrrolo[3,2-b]pyridine-3-carboxamide]",< 1 nM
2,"Cc1[nH]c2c(-c3c(OCC4CC4)ccc4c3OCO4)ccnc2c1C(=O)NC1CCN(C(=O)[C@H](C)O)CC1 [Example F02, 7-[5-(Cyclopropylmethoxy)-1,3-benzodioxol-4-yl]-N-{1-[(2S)-2-hydroxypropanoyl]piperidin-4-yl}-2-methyl-1H-pyrrolo[3,2-b]pyridine-3-carboxamide]",< 1 nM
3,"COCC(=O)N1CCC(NC(=O)c2c(C)[nH]c3c(-c4cc(OC)c(F)cc4OCC4CC4)ccnc23)CC1 [Example E63, 7-[2-(Cyclopropylmethoxy)-4-fluoro-5-methoxyphenyl]-N-[1-(methoxyacetyl)piperidin-4-yl]-2-methyl-1H-pyrrolo[3,2-b]pyridine-3-carboxamide]",< 1 nM
4,"COc1ccc(OCC2CC2)c(-c2ccnc3c(C(=O)NC4CN(C(=O)C(C)O)CC4O)c(C)[nH]c23)c1 (mixture of isomers) [Example F33, Diastereomeric mixture of 7-[2-(Cyclopropylmethoxy)-5-methoxyphenyl]-N-{(3R*,4R*)-4-hydroxy-1-[(2S)-2-hydroxypropanoyl]pyrrolidin-3-yl}-2-methyl-1H-pyrrolo[3,2-b]pyridine-3-carboxamide and Diastereomeric mixture of 7-[2-(cyclopropylmethoxy)-5-methoxyphenyl]-N-{(3S*,4S*)-4-hydroxy-1-[(2S)-2-hydroxypropanoyl]pyrrolidin-3-yl}-2-methyl-1H-pyrrolo[3,2-b]pyridine-3-carboxamide]",1 to 10 nM
5,"COc1ccc(OCC2CC2)c(-c2ccnc3c(C(=O)N[C@@H]4CN(C(=O)CO)C[C@H]4O)c(C)[nH]c23)c1 (relative stereo) [Example F32, 7-[2-(Cyclopropylmethoxy)-5-methoxyphenyl]-N-[(3R*,4R*)-4-hydroxy-1-(hydroxyacetyl)pyrrolidin-3-yl]-2-methyl-1H-pyrrolo[3,2-b]pyridine-3-carboxamide]",1 to 10 nM
6,"CCC(=O)N[C@H]1CC[C@@H](NC(=O)c2c(C)[nH]c3c(-c4c(OCC5CC5)ccc5c4OCO5)ccnc23)CC1 [Example E07, 7-[5-(Cyclopropylmethoxy)-1,3-benzodioxol-4-yl]-2-methyl-N-[cis-4-(propionylamino)cyclohexyl]-1H-pyrrolo[3,2-b]pyridine-3-carboxamide]",< 1 nM
7,"COCC(=O)N1CCC(NC(=O)c2c(C)[nH]c3c(-c4cc(F)ccc4OCC4CC4)ccnc23)CC1 [Example E21, 7-[2-(Cyclopropylmethoxy)-5-fluorophenyl]-N-[1-(methoxyacetyl)piperidin-4-yl]-2-methyl-1H-pyrrolo[3,2-b]pyridine-3-carboxamide]",1 to 10 nM
8,"COc1ccc(-c2ccnc3c(C(=O)N[C@H]4CC[C@H](NC(=O)CO)CC4)c(C)[nH]c23)c(OCC2CC2)c1 [Example F22, 7-[2-(Cyclopropylmethoxy)-4-methoxyphenyl]-N-{trans-4-[(hydroxyacetyl)amino]cyclohexyl}-2-methyl-1H-pyrrolo[3,2-b]pyridine-3-carboxamide]",< 1 nM
9,"CCC(=O)N1CCC(NC(=O)c2c(C)[nH]c3c(-c4ccc(F)cc4OCC4CC4)ccnc23)CC1 [Example E11, 7-[2-(Cyclopropylmethoxy)-4-fluorophenyl]-2-methyl-N-(1-propanoylpiperidin-4-yl)-1H-pyrrolo[3,2-b]pyridine-3-carboxamide]",< 1 nM
10,"COc1cc(OCC2CC2)c(-c2ccnc3c(C(=O)NC4CCN(C(C)=O)CC4)c(C)[nH]c23)cc1F [Example E76, N-(1-Acetylpiperidin-4-yl)-7-[2-(cyclopropylmethoxy)-5-fluoro-4-methoxyphenyl]-2-methyl-1H-pyrrolo[3,2-b]pyridine-3-carboxamide]",< 1 nM
11,"COc1cc(-c2ccnc3c(C(=O)N[C@H]4CC[C@@H](NC(=O)CO)CC4)c(C)[nH]c23)c(OCC2CC2)cc1F [Example F44, 7-[2-(Cyclopropylmethoxy)-4-fluoro-5-methoxyphenyl]-N-{cis-4-[(hydroxyacetyl)amino]cyclohexyl}-2-methyl-1H-pyrrolo[3,2-b]pyridine-3-carboxamide]",< 1 nM
12,"COc1ccc(OCC2CC2)c(-c2ccnc3c(C(=O)N[C@H]4CC[C@@H](NC(=O)CO)CC4)c(C)[nH]c23)c1 [Example F30, 7-[2-(Cyclopropylmethoxy)-5-methoxyphenyl]-N-{cis-4-[(hydroxyacetyl)amino]cyclohexyl}-2-methyl-1H-pyrrolo[3,2-b]pyridine-3-carboxamide]",< 1 nM
13,"Cc1[nH]c2c(-c3cc(F)ccc3OCC3CC3)ccnc2c1C(=O)N[C@H]1CC[C@H](NC(=O)[C@H](C)O)CC1 [Example F15, 7-[2-(Cyclopropylmethoxy)-5-fluorophenyl]-N-(trans-4-{[(2S)-2-hydroxypropanoyl]amino}cyclohexyl)-2-methyl-1H-pyrrolo[3,2-b]pyridine-3-carboxamide]",< 1 nM
14,"CCC(=O)N[C@H]1CC[C@@H](NC(=O)c2c(C)[nH]c3c(-c4cc(F)c(OC)cc4OCC4CC4)ccnc23)CC1 [Example E83, 7-[2-(Cyclopropylmethoxy)-5-fluoro-4-methoxyphenyl]-2-methyl-N-[cis-4-(propionylamino)cyclohexyl]-1H-pyrrolo[3,2-b]pyridine-3-carboxamide]",< 1 nM
15,"COc1ccc(OCC2CC2)c(-c2ccnc3c(C(=O)N[C@H]4CC[C@H](NC(=O)[C@H](C)O)CC4)c(C)[nH]c23)c1 [Example F29, 7-[2-(Cyclopropylmethoxy)-5-methoxyphenyl]-N-(trans-4-{[abs.(2S)-2-hydroxypropanoyl]amino}cyclohexyl)-2-methyl-1H-pyrrolo[3,2-b]pyridine-3-carboxamide]",< 1 nM
16,"COc1cc(-c2ccnc3c(C(=O)N[C@H]4CC[C@H](NC(=O)CO)CC4)c(C)[nH]c23)c(OCC2CC2)cc1F [Example F42, 7-[2-(Cyclopropylmethoxy)-4-fluoro-5-methoxyphenyl]-N-{trans-4-[(hydroxyacetyl)amino]cyclohexyl}-2-methyl-1H-pyrrolo[3,2-b]pyridine-3-carboxamide]",< 1 nM
17,"COCC(=O)N[C@H]1CC[C@H](NC(=O)c2c(C)[nH]c3c(-c4cc(F)c(OC)cc4OCC4CC4)ccnc23)CC1 [Example E81, 7-[2-(Cyclopropylmethoxy)-5-fluoro-4-methoxyphenyl]-N-{trans-4-[(methoxyacetyl)amino]cyclohexyl}-2-methyl-1H-pyrrolo[3,2-b]pyridine-3-carboxamide]",< 1 nM

# System: anaesthetised male Sprague Dawley rats
# Assay: Phenylephrine-induced acute arterial hypertension and SNP-induced blood pressure response (MAP)
# Format: in vivo
# Settings: 3 mg/kg orally 90 min prior to SNP (30 μg/kg i.v.); continuous i.v. PE-infusion; vs. placebo
# Text: Nitric oxide regulates smooth muscle tone by elevation of cGMP via activation of guanylate cyclase and subsequent activation of cyclic GMP-dependent protein kinase. The amplitude and duration of the cGMP signal in smooth muscle is largely regulated by cGMP-specific cyclic nucleotide phosphodiesterase 5 (PDE5). […] The aim of the study was to evaluate the effects of the selective PDE5 inhibitors described in this present subject matter on phenylephrine-induced acute arterial hypertension and sodium-nitroprusside (SNP) induced blood pressure response in anaesthetised male Sprague Dawley rats.
# The test compound (suspended in a 4% w/v aqueous methylcellulose solution 3 mg/kg) or placebo (i.e. 4% aqueous methylcellulose solution) is administered orally to conscious Sprague Dawley rats 90 min prior to SNP administration. 40 min later, rats are anaesthetised by intramuscular administration of 80 mg/kg ketamine-HCl+4 mg/kg xylazin-HCl and ventilated with ˜1.5% isoflurane in a mixture of ambient air and 40% oxygen. Catheters for i.v. PE- and SNP-administration and recording of mean arterial blood pressure (MAP) are inserted. […] To assess the effect of test compounds (PDE5 inhibitory activity) in comparison to placebo, MAP response is analysed. […]
row,Structure (SMILES),"efficacy (% change vs. control), corr. AUCMAP 0-180 s following SNP-administration"
1,"CC(=O)N1CCC(NC(=O)c2c(C)[nH]c3c(-c4c(OCC5CC5)ccc5c4OCO5)ccnc23)CC1 [Example E01, N-(1-Acetylpiperidin-4-yl)-7-[5-(cyclopropylmethoxy)-1,3-benzodioxol-4-yl]-2-methyl-1H-pyrrolo[3,2-b]pyridine-3-carboxamide]",~−27%
2,"Cc1[nH]c2c(-c3c(OCC4CC4)ccc4c3OCO4)ccnc2c1C(=O)NC1CCN(C(=O)[C@H](C)O)CC1 [Example F02, 7-[5-(Cyclopropylmethoxy)-1,3-benzodioxol-4-yl]-N-{1-[(2S)-2-hydroxypropanoyl]piperidin-4-yl}-2-methyl-1H-pyrrolo[3,2-b]pyridine-3-carboxamide]",~−27%
